Where a name gives a salt, the structure may show the parent alone. Read-outs that look alike come from different tables or passages of the source.
Assays:
[1] = target: T1, Human vitronectin receptor (αv β3) (Homo sapiens, UniProt P05106+P06756); assay: Vitronectin adhesion assay (solid phase receptor assay, biotinylated vitronectin competition); format: binding
T1 construct: Human vitronectin receptor(αv β3) was purified from human placenta; from tissue; host or cells: human placenta
Method: VITRONECTIN ADHESION ASSAY Human vitronectin receptor(αv β3) was purified from human placenta as previously described [Pytela et al., Methods in Enzymology, 144:475-489 (1987)). Human vitronectin was purified from fresh frozen plasma as previously described [Yatohgo et al., Cell Structure and Function, 13:281-292 (1988)]. Biotinylated human vitronectin was prepared by coupling NHS-biotin from Pierce Chemical Company (Rockford, Ill.) to purified vitronectin as previously described [Charo et al., J. Biol. Chem., 266(3):1415-1421 (1991)]. Assay buffer, OPD substrate tablets, and RIA grade BSA were obtained from Sigma (St. Louis, Mo.). Anti-biotin antibody was obtained from Calbiochem (La Jolla, Calif.). Linbro microtiter plates were obtained from Flow Labs (McLean, Va.). ADP reagent was obtained from Sigma (St. Louis, Mo.). Solid Phase Receptor Assays This assay was essentially the same as previously reported [Niiya et al., Blood, 70:475-483 (1987)]. The purified human vitronectin receptor (αv β3) was diluted from stock solutions to 1.0 μg/mL in Tris-buffered saline containing 1.0 mM Ca^++, Mg^++, and Mn^++, pH 7.4 (TBS^+++). The diluted receptor was immediately transferred to Linbro microtiter plates at 100 μL/well (100 ng receptor/well). The plates were sealed and incubated overnight at 4° C. to allow the receptor to bind to the wells. All remaining steps were at room temperature. The assay plates were emptied and 200 μL of 1% RIA grade BSA in TBS^+++ (TBS^+++ /BSA) were added to block exposed plastic surfaces. Following a 2 hour incubation, the assay plates were washed with TBS^+++ using a 96 well plate washer. Logarithmic serial dilution of the test compound and controls were made starting at a stock concentration of 2 mM and using 2 nM biotinylated vitronectin in TBS^+++ /BSA as the diluent. This premixing of labeled ligand with test (or control) ligand, and subsequent transfer of 50 μL aliquots to the assay plate was carried out with a CETUS Propette robot; the final concentration of the labeled ligand was 1 nM and the highest concentration of test compound was 1.0×10^-4 M. The competition occurred for two hours after which all wells were washed with a plate washer as before. Affinity purified horseradish peroxidase labeled goat antibiotin antibody was diluted 1:3000 in TBS^+++ /BSA and 125 μL were added to each well. After 30 minutes, the plates were washed and incubated with OPD/H2 O2 substrate in 100 mM/L Citrate buffer, pH 5.0. The plate was read with a microtiter plate reader at a wavelength of 450 nm and when the maximum-binding control wells reached an absorbance of about 1.0, the final A450 were recorded for analysis. The data were analyzed using a macro written for use with the EXCEL™ spreadsheet program. The mean, standard deviation, and %CV were determined for duplicate concentrations. The mean A450 values were normalized to the mean of four maximum-binding controls (no competitor added)(B-MAX). The normalized values were subjected to a four parameter curve fit algorithm [Rodbard et al., Int.

[2] = target: T2, Human fibrinogen receptor (αIIb β3) (Homo sapiens, UniProt P05106+P08514); assay: Purified IIb/IIIa receptor assay (solid phase receptor assay, biotinylated vitronectin competition); conditions: inhibition of 50% of the maximum binding of biotinylated vitronectin; 1 nM labeled ligand, 2 hours, room temperature, highest concentration of test compound 1.0×10^-4 M
T2 construct: Human fibrinogen receptor (αIIb β3) was purified from outdated platelets; from tissue; host or cells: outdated human platelets
Source text: PURIFIED IIb/IIIa RECEPTOR ASSAY Human fibrinogen receptor (αIIb β3) was purified from outdated platelets. (Pytela, R., Pierschbacher, […]., Suzuki, S., and […] acid adhesion receptors", Methods in Enzymology 144(1987):475-489.) Human vitronectin was purified from fresh frozen plasma as described in Yatohgo, T., Izumi, M., Kashiwagi, H., and Hayashi, M., "Novel purification of vitronectin from human plasma by heparin affinity chromatography," Cell Structure and Function 13(1988):281-292. Biotinylated human vitronectin was prepared by coupling NHS-biotin from Pierce Chemical Company (Rockford, Ill.) to purified vitronectin as previously described. (Charo, […]., Phillips, D. R., Hsu, M. A., Scarborough, R. M., "Inhibition of fibrinogen binding to GP IIb/IIIa by a GP IIIa peptide", J. Biol. Chem. 266(3)(1991):1415-1421.) Assay buffer, OPD substrate tablets, and RIA grade BSA were obtained from Sigma (St. Louis, Mo.). Anti-biotin antibody was obtained from Calbiochem (La Jolla, Calif.). Linbro microtiter plates were obtained from Flow Labs (McLean, Va.). ADP reagent was obtained from Sigma (St. Louis, Mo.). Solid Phase Receptor Assays This assay is essentially the same reported in […]., Bader, R., Byers-Ward, […]., Plow, E. F. and Ruggeri, Z. M., "Increased surface expression of the membrane glycoprotein IIb/IIIa complex induced by platelet activation: Relationships to the binding of fibrinogen and platelet aggregation", Blood 70(1987):475-483. The purified human fibrinogen receptor (αIIb β3) was diluted from stock solutions to 1.0 μg/mL in Tris-buffered saline containing 1.0 mM Ca^++, Mg^++, and Mn^++, pH 7.4 (TBS^+++). The diluted receptor was immediately transferred to Linbro microtiter plates at 100 μL/well (100 ng receptor/well). The plates were sealed and incubated overnight at 4° C. to allow the receptor to bind to the wells. All remaining steps were at room temperature. The assay plates were emptied and 200 μL of 1% RIA grade BSA in TBS^+++ (TBS^+++ /BSA) were added to block exposed plastic surfaces. Following a 2 hour incubation, the assay plates were washed with TBS^+++ using a 96 well plate washer. Logarithmic serial dilution of the test compound and controls were made starting at a stock concentration of 2 mM and using 2 nM biotinylated vitronectin in TBS^+++ /BSA as the diluent. This premixing of labeled ligand with test (or control) ligand, and subsequent transfer of 50 μL aliquots to the assay plate was carried out with a CETUS Propette robot; the final concentration of the labeled ligand was 1 nM and the highest concentration of test compound was 1.0×10^-4 M. The competition occurred for two hours after which all wells were washed with a plate washer as before. Affinity purified horseradish peroxidase labeled goat antibiotin antibody was diluted 1:3000 in TBS^+++ /BSA and 125 μL were added to each well. After 30 minutes, the plates were washed and incubated with […]/H2 O2 substrate in 100 mM/L citrate buffer, pH 5.0. The plate was read with a microtiter plate reader at a wavelength of 450 nm and when the maximum-binding control wells reached an absorbance of about 1.0, the final A450 were recorded for analysis. The data were analyzed using a macro written for use with the EXCELTM spreadsheet program. The mean, standard deviation, and %CV were determined for duplicate concentrations. The mean A450 values were normalized to the mean of four maximum-binding controls (no competitor added)(B-MAX). The normalized values were subjected to a four parameter curve fit algorithm, [Robard et al., Int.

[3] = inhibition of 50% of the maximum binding of biotinylated vitronectin, 1 nM labeled ligand, 2 hours, room temperature, highest concentration of test compound 1.0×10^-4 M, read-out: AvB3 IC50

Molecule	IC50 [1, 3]	IC50 [2]	IC50 ([1]; positive control included on each plate, range given in text, read-out: αv β3 antagonist IC50 (positive control))
3-[[[[3-[(aminothioxomethyl)amino]phenyl]carbonyl]amino]methyl]benzenepropanoic acid [Example 25]	7460 nM	26900 nM	
CCC(CC(=O)O)c1cccc(CNC(=O)c2ccc(Cl)c(NC(=N)N)c2)c1 (racemic) [Example 58, (±) 3-[[[[3-[(aminoiminomethyl)amino]-4-chlorophenyl]carbonyl]amino]methyl]-β-ethylbenzenepropanoic acid, trifluoroacetate salt]	11.6 nM	5180 nM	
CCC(CC(=O)O)c1cccc(CNC(=O)c2cc(NC(=N)N)cc(C(F)(F)F)c2)c1 (racemic) [Example 59, (±) 3-[[[[3-[(aminoiminomethyl)amino]-5(trifluoromethyl)phenyl]carbonyl]amino]methyl]-β-ethylbenzenepropanoic acid, trifluoroacetate salt]	3.88 nM	3130 nM	
N=C(N)Nc1cccc(C(=O)NCc2cccc(C(CC(=O)O)c3cc(F)cc(F)c3)c2)c1 (racemic) [Example 60, (±) β-[3-[[[[3-[(aminoiminomethyl)amino]phenyl]carbonyl]amino]methyl]phenyl]-3,5-difluorobenzenepropanoic acid, trifluoroacetate salt]	4.58 nM	286 nM	
N=C(N)Nc1cc(C(=O)NCc2cccc(C(CC(=O)O)c3cc(F)cc(F)c3)c2)cc(C(F)(F)F)c1 (racemic) [Example 61, (±) β-[3-[[[[3-[(aminoiminomethyl)amino]-5-(trifluoromethyl)phenyl]carbonyl]amino]methyl]phenyl]-3,5-difluorobenzenepropanoic acid, trifluoroacetate salt hydrate]	1.33 nM	712 nM	
O=C(O)CC(c1cc(F)cc(F)c1)c1cccc(CNC(=O)c2cccc(NC3=NCCCN3)c2)c1 (racemic) [Example 62, (±) 3,5-difluoro-β-[3-[[[[3-[(1,4,5,6-tetrahydropyrimidin-2-yl)amino]phenyl]carbonyl]amino]methyl]phenyl]benzenepropanoic acid, trifluoroacetate salt monohydrate]	0.87 nM	1900 nM	
COc1ccccc1C(CC(=O)O)c1cccc(CNC(=O)c2cccc(NC(=N)N)c2)c1 (racemic) [Example 63, (±) -[3-[[[[3-[(aminoiminomethyl)amino]phenyl]carbonyl]amino]methyl]phenyl]-2-methoxybenzene propanoic acid, trifluoroacetate salt hydrate]	23.5 nM	454 nM	
CC(CC(=O)O)c1cccc(CNC(=O)c2cccc(NC(N)=NC#N)c2)c1 (racemic) [Example 64, (±) 3[[[[3-[[amino(cyanoimino)methyl]amino]phenyl]carbonyl]amino]methyl]-β-methylbenzenepropanoic acid]	199 nM	26400 nM	
CC(CC(=O)O)c1cccc(CNC(=O)c2cccc(NC(N)=NC(N)=O)c2)c1 (racemic) [Example 65, (±) 3[[[[3-[[amino[(aminocarbonyl)imino]methyl]amino]phenyl]carbonyl]amino]methyl]-β-methylbenzenepropanoic acid, trifluoroacetate salt]	23 nM	4010 nM	
CC(CC(=O)O)c1cccc(CNC(=O)c2cccc(NC3=NC(=O)CN3)c2)c1 (racemic) [Example 67, (±) 3-[[[[3-[(4,5-dihydro-4-oxo-1H-imidazol-2-yl)amino]phenyl]carbonyl]amino]methyl]-β-methylbenzenepropanoic acid]	122 nM	12900 nM	
CC(CC(=O)O)c1cccc(CNC(=O)c2cccc(Nc3nc4ccccc4[nH]3)c2)c1 (racemic) [Example 69, (±) 3-[[[[3-[(1H-benzimidazol-2-yl)amino]phenyl]carbonyl]amino]methyl]-β-methyl benzenepropanoic acid]	425 nM	10100 nM	
COc1ccc2[nH]c(Nc3cccc(C(=O)NCc4cccc(C(C)CC(=O)O)c4)c3)nc2c1 (racemic) [Example 70, (±) 3-[[[[3-[(5-methoxy-1H-benzimidazol-2-yl)amino]phenyl]carbonyl]amino]methyl]-β-methyl benzenepropanoic acid, trifluoroacetate salt]	1710 nM	7660 nM	
N=C(N)Nc1cccc(S(=O)(=O)Nc2cccc(C(CC(=O)O)c3ccccc3)c2)c1 (stereo not drawn) [Example 1, 3-[[[3-[(aminoiminomethyl)amino]phenyl]sulfonyl]amino]-β-phenylbenzenepropanoic acid, trifluoroacetate salt]	16.7 nM	625 nM	
N=C(N)Nc1cccc(C(=O)Nc2cccc(C(CC(=O)O)c3ccccc3)c2)c1 (stereo not drawn) [Example 2, 3-[[[3-[(aminoiminomethyl)amino]phenyl]carbonyl]amino]-β-phenylbenzenepropanoic acid, trifluoroacetate salt]	499 nM	3760 nM	
N=C(N)NCCCCC(=O)NCC(=O)NC(CC(=O)O)c1cccnc1 (stereo not drawn) [β-[[2-[[5-[(aminoiminomethyl)amino]-1-oxopentyl]amino]-1-oxoethyl]amino]-3-pyridinepropanoic acid]			3 to 10 nM
